According to patent publication US12564595B2, “Prophylactic and therapeutic pharmaceutical agent for HIV infectious diseases characterized by comprising combination of integrase inhibitor and anti-HIV agent” (Shionogi & Co., Ltd., priority 2019, dated 2026):
pEC50: −log10 of the molar value.

What was measured:
[1] = Test Example 8: metabolic stability test; assay type: in vitro ADME, human; conditions: pooled human liver microsomes, 30 min at 37° C., NADPH, compound concentration 0.5 μmol/L
Method in brief: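 Pooled human liver microsomes (0.5 mg protein/mL, Tris-HCl pH 7.4) incubated with compound and 1 mmol/L NADPH for 0 or 30 min at 37° C. After methanol/acetonitrile quench, remaining parent was quantified by LC/MS/MS or SPE/MS and expressed as % of the 0 min amount.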

[2] = test system: HIV mutant strain 1 (E138K/G140S/Q148H/N155H); test: Test Example 2: resistance evaluation test (HeLa-CD4 reporter), mutant strain 1; assay type: cell-based; conditions: FC=EC50 of mutant strain/EC50 of wild strain; HeLa-CD4 cells
Method in brief: (§1)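 HeLa-CD4 reporter cells were infected with wild-type or mutant HIV in the presence of serially diluted compound and cultured 3 days. Cell lysates were read by chemiluminescent reporter assay after about 1 h at room temperature. Fold change was calculated as mutant EC50 divided by wild-type EC50.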

HIV [3] = test: microbe, parasite or virus in culture; assay type: cell-based; conditions: Human immunodeficiency virus 1, MT4, 96 h, read-out: EC50 (50% HIV inhibition concentration), MT-4 cells, HIV, cultured four days, MTT; compounds of formula (I) of (A)
Method in brief: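 MT-4 cells infected with HIV in the presence of serially diluted test samples and cultured four days at CO2 incubator conditions. Cell viability measured by MTT reduction (1 h), solubilised formazan read at 560/690 nm.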

[4] = test system: HIV mutant strain 2 (E92Q/E138T/G140S/Q148H); test: Test Example 2: resistance evaluation test (HeLa-CD4 reporter), mutant strain 2; assay type: cell-based; conditions: FC=EC50 of mutant strain/EC50 of wild strain; HeLa-CD4 cells
Method in brief: as §1

HIV [5] = test: Test Example 3: test for confirmation of combined use effect; assay type: cell-based; parameters: key to D value (dosewise additivity value): <-0.1 synergy, -0.1 to 0.1 additive, >0.1 antagonism
Source text: The two compounds in respect of which the effect of combined use was desired to be examined were mixed in various ratios, and the anti-HIV activity (50% HIV inhibiting concentration) for each combination was found by the method of test example 1. […] A brief description of the method of calculating the D value is given below.
The D value that is found by evaluating the anti-HIV activity of respective combinations of M concentrations of compound X1 and N concentrations of compound X2 is calculated by the following mathematical expression 1.
The effect of combined use was evaluated in terms of the D value in accordance with the following criteria • −0.5 to −0.2: strong synergetic effect • −0.2 to −0.1: weak synergetic effect • […]: additive synergetic effect • 0.1 to 0.2: weak antagonism • 0.2 to 0.5: strong antagonism

HIV [6] = test: Test Example 16: anti-HIV activity in the presence of human serum protein (MT-4 cells); assay type: cell-based; conditions: 100% extrapolation value, PS=4×(EC50 with 25% human serum protein/EC50 with no human serum protein)
Procedure: A stage dilution series of the test samples was created on a 96-well microplate (50 μL/well).
Aliquots of human serum protein solution (human serum protein concentration 50%) were dispensed in the amount of 100 μL/well to a 96-well microplate containing the test sample. This was then left to stand for 1 h at room temperature. Culture medium in the amount of 100 μL/well in each case was dispensed to a serum-free plate for control purposes. Aliquots of MT-4 cells in the amount of 3.0×10^5/well and HIV virus liquid in the amount of 3 μL/well were mixed for the necessary number of wells and reacted for 1 h at 37° C. After the reaction, the cell suspension was centrifuged and the supernatant discarded; aliquots of infected cells were distributed to culture medium in the amount of 50 μL/well and were dispensed in the amount of 50 μL/well in each case into the wells of a 96-well microplate containing test samples and human serum protein (human serum protein concentration: 25%). Mixing was performed using a plate mixer and culturing was performed for four days with a CO2 incubator. […] MTT(3-(4, 5-dimethylthiazol-2-yl)-2, 5-diphenyltetrazolium bromide) liquid in the amount of 30 μL was dispensed to each of the wells. The reaction was performed for 1 h in a CO2 incubator. 150 μL supernatant was removed to avoid aspirating cells from the wells. 150 μL of cell solution was added and thorough mixing was performed, using a plate mixer, until all the cells were dissolved. The optical absorbance on the mixed plate was measured at two wavelengths, namely, 560 nm/690 nm, using a microplate reader.
Next, the potency shift (PS) was calculated, using the following formula. The PS is the value of the human serum protein concentration, extrapolated to 100%.

[7] = molecular target: T1, voltage-gated sodium channel (Nav 1.5 channel) (Homo sapiens, UniProt Q14524); test: Test Example 14: Nav test (patch clamp, HEK cells); assay type: cell-based; conditions: HEK cells expressing Nav 1.5 channel, whole cell patch clamp
T1 construct: expressed in transfected cells; host or cells: HEK cells
Procedure: Using a fully automatic patch clamp system (QPatch: Sophion Bioscience A/S), by the whole cell patch clamp method, the cells were maintained at a membrane potential of −100 mV and the induced INa when a −10 mV depolarization stimulus was applied for 20 msec was recorded. […] From the INa obtained, using analysis software (QPatch: Sophion Bioscience A/S), the absolute value of the maximum peak current was measured, with reference to the current value at the maintained membrane potential.

[8] = combination with compound (B) Compound C (CAI)
[9] = combination with compound (B) Darunavin (PI)
[10] = combination with compound (B) Darunavir (PI)
[11] = combination with compound (B) GS-6207 (CAI)
[12] = combination with compound (B) GSK2838232 (maturation inhibitor)
[13] = combination with compound (B) I′-189 (INLAI)
[14] = combination with compound (B) Lilpiperine (polymerase inhibitor)
[15] = combination with compound (B) Ramipzin (3TC) (polymerase inhibitor)
[16] = combination with compound (B) Rilpivirine (polymerase inhibitor)
[17] = combination with compound (B) VM-1500 (polymerase inhibitor)

T1 sequence (Q14524 whole entry): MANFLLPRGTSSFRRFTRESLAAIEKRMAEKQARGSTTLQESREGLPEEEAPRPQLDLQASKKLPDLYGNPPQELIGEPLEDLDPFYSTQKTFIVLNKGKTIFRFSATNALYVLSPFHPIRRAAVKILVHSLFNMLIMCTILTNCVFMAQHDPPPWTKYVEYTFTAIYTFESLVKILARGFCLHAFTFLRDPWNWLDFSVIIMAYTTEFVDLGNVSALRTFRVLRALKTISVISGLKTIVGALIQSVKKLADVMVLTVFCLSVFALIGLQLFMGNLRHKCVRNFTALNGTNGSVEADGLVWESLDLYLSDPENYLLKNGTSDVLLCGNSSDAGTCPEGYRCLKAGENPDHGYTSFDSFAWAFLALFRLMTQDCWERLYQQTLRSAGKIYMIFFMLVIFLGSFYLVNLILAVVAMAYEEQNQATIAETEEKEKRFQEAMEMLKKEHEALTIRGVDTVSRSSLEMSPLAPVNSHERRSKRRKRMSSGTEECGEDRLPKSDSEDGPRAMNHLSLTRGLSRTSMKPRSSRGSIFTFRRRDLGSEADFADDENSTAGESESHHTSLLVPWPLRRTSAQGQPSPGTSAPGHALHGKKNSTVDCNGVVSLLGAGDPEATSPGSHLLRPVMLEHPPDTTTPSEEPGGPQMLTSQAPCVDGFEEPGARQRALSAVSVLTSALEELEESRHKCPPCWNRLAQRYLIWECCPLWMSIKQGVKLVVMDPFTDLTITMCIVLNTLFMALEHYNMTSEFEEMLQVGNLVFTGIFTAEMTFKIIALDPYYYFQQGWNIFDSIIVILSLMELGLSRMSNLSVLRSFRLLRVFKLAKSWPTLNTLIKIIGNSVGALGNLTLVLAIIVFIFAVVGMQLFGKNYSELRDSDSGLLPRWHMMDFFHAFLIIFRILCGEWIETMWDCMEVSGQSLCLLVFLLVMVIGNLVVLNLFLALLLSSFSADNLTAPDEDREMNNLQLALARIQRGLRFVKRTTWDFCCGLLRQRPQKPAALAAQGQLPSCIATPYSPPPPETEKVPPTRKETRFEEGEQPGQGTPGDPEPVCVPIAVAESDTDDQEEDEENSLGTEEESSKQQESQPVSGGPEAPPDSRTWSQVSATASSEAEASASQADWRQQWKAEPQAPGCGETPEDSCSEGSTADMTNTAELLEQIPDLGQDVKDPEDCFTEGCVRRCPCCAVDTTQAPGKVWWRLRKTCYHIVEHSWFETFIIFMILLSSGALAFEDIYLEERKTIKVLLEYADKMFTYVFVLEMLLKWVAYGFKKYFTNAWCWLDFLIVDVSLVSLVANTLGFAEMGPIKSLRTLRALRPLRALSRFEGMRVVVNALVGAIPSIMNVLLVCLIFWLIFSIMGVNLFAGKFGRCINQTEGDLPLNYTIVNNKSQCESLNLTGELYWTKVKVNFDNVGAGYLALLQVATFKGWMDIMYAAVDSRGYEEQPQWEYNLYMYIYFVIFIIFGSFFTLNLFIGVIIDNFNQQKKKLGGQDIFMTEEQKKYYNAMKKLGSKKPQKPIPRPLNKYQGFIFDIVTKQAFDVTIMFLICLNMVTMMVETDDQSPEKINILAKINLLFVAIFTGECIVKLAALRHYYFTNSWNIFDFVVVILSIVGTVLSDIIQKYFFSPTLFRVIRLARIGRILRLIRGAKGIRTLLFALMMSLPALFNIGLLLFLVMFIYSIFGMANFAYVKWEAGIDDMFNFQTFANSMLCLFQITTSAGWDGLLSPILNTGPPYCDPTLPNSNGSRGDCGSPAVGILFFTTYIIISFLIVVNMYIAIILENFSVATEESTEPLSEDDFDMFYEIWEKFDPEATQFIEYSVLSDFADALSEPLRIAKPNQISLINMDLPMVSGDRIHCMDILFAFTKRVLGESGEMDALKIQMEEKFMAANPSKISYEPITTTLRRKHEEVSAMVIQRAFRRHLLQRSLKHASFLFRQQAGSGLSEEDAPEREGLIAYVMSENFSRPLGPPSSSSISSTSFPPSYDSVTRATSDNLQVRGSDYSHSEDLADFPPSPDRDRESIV

Row | SMILES | Remaining percentage [1] [%] | FC in respect of mutant strain 1 (E138K/G140S/Q148H/N155H) [2] | pEC50 (HIV [3]) | FC in respect of mutant strain 2 (E92Q/E138T/G140S/Q148H) [4] | D value (dosewise additivity value) (HIV [5]; [8]) | effect of combined use (HIV [5]; [8]) | D value (dosewise additivity value) (HIV [5]; [9]) | effect of combined use (HIV [5]; [10]) | D value (dosewise additivity value) (HIV [5]; [11]) | effect of combined use (HIV [5]; [11]) | D value (dosewise additivity value) (HIV [5]; [12]) | effect of combined use (HIV [5]; [12]) | effect of combined use (HIV [5]; [14]) | D value (dosewise additivity value) (HIV [5]; [15]) | effect of combined use (HIV [5]; [15]) | D value (dosewise additivity value) (HIV [5]; [16]) | potency shift (PS) in the presence of human serum protein (HIV [6]) | ratio of maximum peak current (INa) on application of compound to that on application of medium [7] [%] | further results
1 | CCN1C(=O)c2c(O)c(=O)c(-c3nnc(Cc4c(F)cc(F)cc4F)s3)cn2N2CCCC[C@@H]12 [Compound I-007] | 97.7 | 3.8 | 8.80 | 6.9 | 0.059 | Additive (−0.1 to −0.1: additive synergetic effect) | −0.096 | Additive (−0.1 to −0.1: additive synergetic effect) | −0.040 | Additive (−0.1 to −0.1: additive synergetic effect) | 0.017 | Additive (−0.1 to −0.1: additive synergetic effect) | Additive (−0.1 to −0.1: additive synergetic effect) | −0.231 | Strong synergy (−0.5 to −0.2: strong synergetic effect) | −0.054 | 116 | 103 | D value (dosewise additivity value) (HIV [5]; [13]): 0.053; effect of combined use (HIV [5]; [13]): Additive (−0.1 to −0.1: additive synergetic effect); D value (dosewise additivity value) (HIV [5]; [17]): −0.097; effect of combined use (HIV [5]; [17]): Additive (−0.1 to −0.1: additive synergetic effect)
2 | COC[C@@H]1CC[C@H]2N(C)C(=O)c3c(O)c(=O)c(C(=O)NCc4cccc(Cl)c4F)cn3N12 [II-026] | 86 | 10 | – | 6.9 | 0.043 | Additive (−0.1 to −0.1: additive synergetic effect) | −0.137 | Weak synergy (−0.2 to −0.1: weak synergetic effect) | −0.043 | Additive (−0.1 to −0.1: additive synergetic effect) | −0.061 | Additive (−0.1 to −0.1: additive synergetic effect) | Additive (−0.1 to −0.1: additive synergetic effect) | −0.232 | Strong synergy (−0.5 to −0.2: strong synergetic effect) | −0.077 | 364 | 79 | D value (dosewise additivity value) (HIV [5]; [13]): 0.056; effect of combined use (HIV [5]; [13]): Additive (−0.1 to −0.1: additive synergetic effect); D value (dosewise additivity value) (HIV [5]; [17]): −0.155; effect of combined use (HIV [5]; [17]): Weak synergy (−0.2 to −0.1: weak synergetic effect)
3 | CCN1C(=O)c2c(O)c(=O)c(C(=O)NCc3ccc(F)cc3F)cn2N2C[C@@H](C)C[C@@H]12 [II-045] | 96 | 19 | – | 21 | – | – | – | – | – | – | – | – | – | – | – | – | 236 | – | –
4 | CCN1C(=O)c2c(O)c(=O)c(-c3nnc(Cc4ccc(F)cc4F)s3)cn2N2[C@H](COC)CC[C@@H]12 [II-110] | 96.5 | 8.2 | 9.89 | 11 | 0.075 | Additive (−0.1 to −0.1: additive synergetic effect) | −0.058 | Additive (−0.1 to −0.1: additive synergetic effect) | 0.025 | Additive (−0.1 to −0.1: additive synergetic effect) | −0.048 | Additive (−0.1 to −0.1: additive synergetic effect) | Additive (−0.1 to −0.1: additive synergetic effect) | −0.145 | Weak synergy (−0.2 to −0.1: weak synergetic effect) | −0.073 | – | 89.3 | –
5 | CCN1C(=O)c2c(O)c(=O)c(-c3nnc(Cc4c(F)cc(F)cc4F)s3)cn2N2[C@H](COC)CC[C@@H]12 [II-117] | 93.4 | 10 | 9.21 | 11 | – | – | – | – | – | – | – | – | – | – | – | – | – | 88.8 | –
6 | CCN1C(=O)c2c(O)c(=O)c(-c3nnc(Cc4ccc(F)cc4)s3)cn2N2[C@H](COC)CC[C@@H]12 [II-118] | 92.4 | 20 | 9.02 | 31 | – | – | – | – | – | – | – | – | – | – | – | – | – | 86.2 | –
7 | C[C@H]1CC[C@H]2N(C)C(=O)c3c(O)c(=O)c(-c4nnc(Cc5ccc(F)cc5F)s4)cn3N2C1 [II-120] | 95.5 | 5.8 | 9.60 | 8 | – | – | – | – | – | – | – | – | – | – | – | – | – | 78.8 | –
